# Test system: hiPSC-CMs (iCell-Cardiomyocytes^2)
# Assay: MEA impedance (cytotoxicity readout) in hiPSC-CMs
smiles,measurement,setting,value
COc1nc(N)nc2c1ncn2[C@@H]1O[C@H](COP(=O)(N[C@@H](C)C(=O)OCC(C)(C)C)Oc2cccc3ccccc23)[C@@H](O)[C@@]1(C)O (some centres unmarked) [BMS-986094],"Imp (impedance), % change from baseline","0.3 µM, 2h",-4±2%
same,"Imp (impedance), % change from baseline","0.3 µM, 24h",-3±2%
same,"Imp (impedance), % change from baseline","0.3 µM, 48h",-6±3%
same,"Imp (impedance), % change from baseline","0.3 µM, 72h",-8±3%
same,"Imp (impedance), % change from baseline","0.3 µM, 96h",-18±6%
same,"Imp (impedance), % change from baseline","1 µM, 2h",-1±2%
same,"Imp (impedance), % change from baseline","1 µM, 24h",-1±4%
same,"Imp (impedance), % change from baseline","1 µM, 48h",-5±3%
same,"Imp (impedance), % change from baseline","1 µM, 72h",-16±2%
same,"Imp (impedance), % change from baseline","1 µM, 96h",-29±4%
same,"Imp (impedance), % change from baseline","3 µM, 72h",-19±6 %
same,"Imp (impedance), % change from baseline","3 µM, 96h",-38±5 %
same,"Imp (impedance), % change from baseline","3 µM, 2h",3±5%
same,"Imp (impedance), % change from baseline","3 µM, 24h",1±2%
same,"Imp (impedance), % change from baseline","3 µM, 48h",-5±3%
same,"Imp (impedance), % change from baseline","10 µM, 2h",2±1%
same,"Imp (impedance), % change from baseline","10 µM, 24h",4±4%
same,"Imp (impedance), % change from baseline","10 µM, 48h",2±10 %
same,"Imp (impedance), % change from baseline","10 µM, 72h",-11±12%
same,"Imp (impedance), % change from baseline","10 µM, 96h",-41±20 %
C[C@H](CS)C(=O)N1CCC[C@H]1C(=O)O [Captopril],"Imp (impedance), % change from baseline","1 µM, 2h",7±5%
same,"Imp (impedance), % change from baseline","1 µM, 24h",-7±1%
same,"Imp (impedance), % change from baseline","1 µM, 48h",-9±4%
same,"Imp (impedance), % change from baseline","1 µM, 72h",-2±3%
same,"Imp (impedance), % change from baseline","1 µM, 96h",-4±5%
same,"Imp (impedance), % change from baseline","3 µM, 72h",1±4%
same,"Imp (impedance), % change from baseline","3 µM, 96h",-1±4%
same,"Imp (impedance), % change from baseline","3 µM, 2h",9±3%
same,"Imp (impedance), % change from baseline","3 µM, 24h",-6±3%
same,"Imp (impedance), % change from baseline","3 µM, 48h",-7±4%
same,"Imp (impedance), % change from baseline","10 µM, 2h",9±3%
same,"Imp (impedance), % change from baseline","10 µM, 24h",-5±3%
same,"Imp (impedance), % change from baseline","10 µM, 48h",-10±5%
same,"Imp (impedance), % change from baseline","10 µM, 72h",-1±5%
same,"Imp (impedance), % change from baseline","10 µM, 96h",-4±5%
same,"Imp (impedance), % change from baseline","30 µM, 2h",8±2%
same,"Imp (impedance), % change from baseline","30 µM, 24h",-4±3%
same,"Imp (impedance), % change from baseline","30 µM, 48h",-8±2%
same,"Imp (impedance), % change from baseline","30 µM, 72h",1±5%
same,"Imp (impedance), % change from baseline","30 µM, 96h",-4±6%
same,effect on impedance,"all concentrations tested, up to 96 h",did not have a significant effect on impedance
COc1cccc2c1C(=O)c1c(O)c3c(c(O)c1C2=O)C[C@@](O)(C(=O)CO)C[C@@H]3O[C@H]1C[C@H](N)[C@H](O)[C@H](C)O1 [Doxorubicin],"Imp (impedance), % change from baseline","0.1 µM, 2h",3±5%
same,"Imp (impedance), % change from baseline","0.1 µM, 24h",-8±5%
same,"Imp (impedance), % change from baseline","0.1 µM, 48h",-20±4%
same,"Imp (impedance), % change from baseline","0.1 µM, 72h",-27±4%
same,"Imp (impedance), % change from baseline","0.1 µM, 96h",-30±8%
same,"Imp (impedance), % change from baseline","0.3 µM, 2h",-1±1%
same,"Imp (impedance), % change from baseline","0.3 µM, 24h",-23±6 %
same,"Imp (impedance), % change from baseline","0.3 µM, 48h",-47±6 %
same,"Imp (impedance), % change from baseline","0.3 µM, 72h",-70±7 %
same,decrease in the impedance signal,"0.3 µM, 72h",~70%
same,"Imp (impedance), % change from baseline","0.3 µM, 96h",-81±7 %
same,"Imp (impedance), % change from baseline","1 µM, 2h",-1±2%
same,"Imp (impedance), % change from baseline","1 µM, 24h",-56±4 %
same,"Imp (impedance), % change from baseline","1 µM, 48h",-86±1 %
same,"Imp (impedance), % change from baseline","1 µM, 72h",-89±2 %
same,"Imp (impedance), % change from baseline","1 µM, 96h",-89±2 %
same,"Imp (impedance), % change from baseline","3 µM, 72h",-87±0 %
same,"Imp (impedance), % change from baseline","3 µM, 96h",-88±1 %
same,"Imp (impedance), % change from baseline","3 µM, 2h",-2±0%
same,"Imp (impedance), % change from baseline","3 µM, 24h",-56±5 %
same,"Imp (impedance), % change from baseline","3 µM, 48h",-85±2 %
C#Cc1cccc(Nc2ncnc3cc(OCCOC)c(OCCOC)cc23)c1 [Erlotinib],"Imp (impedance), % change from baseline","0.3 µM, 2h",0±3%
same,"Imp (impedance), % change from baseline","0.3 µM, 24h",-5±3%
same,"Imp (impedance), % change from baseline","0.3 µM, 48h",-5±4%
same,"Imp (impedance), % change from baseline","0.3 µM, 72h",-5±6%
same,"Imp (impedance), % change from baseline","0.3 µM, 96h",-3±6%
same,"Imp (impedance), % change from baseline","1 µM, 2h",1±2%
same,"Imp (impedance), % change from baseline","1 µM, 24h",-6±3%
same,"Imp (impedance), % change from baseline","1 µM, 48h",-2±5%
same,"Imp (impedance), % change from baseline","1 µM, 72h",-3±5%
same,"Imp (impedance), % change from baseline","1 µM, 96h",1±9%
same,"Imp (impedance), % change from baseline","3 µM, 72h",-2±4%
same,"Imp (impedance), % change from baseline","3 µM, 96h",0±6%
same,"Imp (impedance), % change from baseline","3 µM, 2h",1±3%
same,"Imp (impedance), % change from baseline","3 µM, 24h",-6±2%
same,"Imp (impedance), % change from baseline","3 µM, 48h",-1±5%
same,effect on impedance,10 µM (highest concentration),"borderline decrease in impedance, which was statistically and physiologically significant only at the 24 h time point"
same,"Imp (impedance), % change from baseline","10 µM, 2h",5±4%
same,"Imp (impedance), % change from baseline","10 µM, 24h",-17±2 %
same,"Imp (impedance), % change from baseline","10 µM, 48h",-13±3%
same,"Imp (impedance), % change from baseline","10 µM, 72h",-13±3%
same,"Imp (impedance), % change from baseline","10 µM, 96h",-10±2%

# Source: PMC10364322, “Evaluation of chronic drug-induced electrophysiological and cytotoxic effects using human-induced pluripotent stem cell-derived cardiomyocytes (hiPSC-CMs)” (Frontiers in Pharmacology, 2023)
